These are literature values, as cited in patent US7374920B2, “Ginkgo biloba levopimaradiene synthase” (priority 2001, dated 2008).

Structures are written as SMILES.

The test system of one series is insect larvae. To be noted: Schwarz, M., 1994; Matsumoto, et al., 1987; cited from earlier work.
Series [1] addresses platelet-activating factor (PAF) receptor (Homo sapiens, UniProt P25105). To be noted: compared with the other ginkgolide diterpenes; cited from earlier work.

Sequence of platelet-activating factor (PAF) receptor (P25105 whole entry): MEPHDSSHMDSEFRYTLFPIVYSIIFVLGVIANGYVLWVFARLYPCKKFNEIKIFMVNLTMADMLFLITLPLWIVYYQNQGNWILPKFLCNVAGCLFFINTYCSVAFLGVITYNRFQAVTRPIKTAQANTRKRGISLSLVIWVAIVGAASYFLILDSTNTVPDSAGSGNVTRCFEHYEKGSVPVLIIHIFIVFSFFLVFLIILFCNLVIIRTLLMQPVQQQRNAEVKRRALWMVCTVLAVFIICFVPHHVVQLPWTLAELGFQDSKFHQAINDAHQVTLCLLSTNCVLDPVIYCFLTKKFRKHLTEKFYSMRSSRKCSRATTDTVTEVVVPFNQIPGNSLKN

`CC(C)(C)[C@]1(O)CC2OC(=O)CC23C(=O)OC2OC(=O)[C@H](O)C231` (some centres unmarked) [bilobalide]: the antifeedant activity result in the series on insect larvae is “significant antifeedant activities toward insect larvae”.
With `CC1C(=O)OC2C(O)C34C5CC(C(C)(C)C)C36C(OC(=O)C6O)OC4(C(=O)O5)C12O` (centres unmarked) [ginkgolide B], the PAF antagonist activity result in series [1] was “highest activity of the diterpenes”.
